# ChEMBL document CHEMBL4725337, “Modification of imidazothiazole derivatives gives promising activity in B-Raf kinase enzyme inhibition; synthesis, in vitro studies and molecular docking” (Bioorg Med Chem Lett, 2020)
# Key:
# [1] = target: Serine/threonine-protein kinase B-raf (Homo sapiens, UniProt P15056, V600E); assay: Inhibition of BRAF V600E mutant (unknown origin)
# UACC-62 = assay: Antiproliferative activity against human UACC-62 cells at 10 uM relative to control; format: functional
# Chain of Serine/threonine-protein kinase B-raf (P15056 2-766 V600E limits assumed): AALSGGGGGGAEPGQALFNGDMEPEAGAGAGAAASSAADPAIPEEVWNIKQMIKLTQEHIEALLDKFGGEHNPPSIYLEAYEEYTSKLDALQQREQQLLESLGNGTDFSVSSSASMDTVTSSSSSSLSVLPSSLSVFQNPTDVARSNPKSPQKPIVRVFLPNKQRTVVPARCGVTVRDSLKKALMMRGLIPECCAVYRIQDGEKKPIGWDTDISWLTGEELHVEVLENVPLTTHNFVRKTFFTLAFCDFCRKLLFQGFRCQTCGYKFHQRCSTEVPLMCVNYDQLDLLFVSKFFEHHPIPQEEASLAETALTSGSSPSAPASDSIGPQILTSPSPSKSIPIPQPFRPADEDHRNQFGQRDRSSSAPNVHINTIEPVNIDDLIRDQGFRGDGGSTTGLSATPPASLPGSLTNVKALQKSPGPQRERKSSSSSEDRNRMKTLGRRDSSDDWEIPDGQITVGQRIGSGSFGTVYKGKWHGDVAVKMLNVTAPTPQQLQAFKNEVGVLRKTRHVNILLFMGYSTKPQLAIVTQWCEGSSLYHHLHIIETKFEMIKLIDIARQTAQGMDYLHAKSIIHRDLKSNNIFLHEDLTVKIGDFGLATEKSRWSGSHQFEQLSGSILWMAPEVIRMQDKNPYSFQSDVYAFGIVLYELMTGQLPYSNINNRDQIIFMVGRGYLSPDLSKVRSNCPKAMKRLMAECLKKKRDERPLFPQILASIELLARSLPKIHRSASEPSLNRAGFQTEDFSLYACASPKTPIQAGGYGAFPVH
SMILES,IC50 [1] [nM],Activity (UACC-62) [%]
Nc1cccc(-c2nc3sccn3c2-c2ccnc(NCCNS(=O)(=O)c3cccc4ccccc34)n2)c1,152,–
Nc1cccc(-c2nc3sccn3c2-c2ccnc(NCCNS(=O)(=O)c3cccc(F)c3)n2)c1,28.3,–
Nc1cccc(-c2nc3sccn3c2-c2ccnc(NCCNS(=O)(=O)c3ccc(Br)cc3)n2)c1,73.7,–
Nc1cccc(-c2nc3sccn3c2-c2ccnc(NCCNS(=O)(=O)c3ccc(Cl)cc3)n2)c1,16.7,–
COc1ccc(S(=O)(=O)NCCNc2nccc(-c3c(-c4cccc(N)c4)nc4sccn34)n2)cc1,23.4,–
Cc1ccc(S(=O)(=O)NCCNc2nccc(-c3c(-c4cccc(N)c4)nc4sccn34)n2)cc1,59.1,–
Nc1cccc(-c2nc3sccn3c2-c2ccnc(NCCCCNS(=O)(=O)c3ccc(Br)cc3)n2)c1,4.31,3.91
Nc1cccc(-c2nc3sccn3c2-c2ccnc(NCCNS(=O)(=O)c3ccc(C(F)(F)F)cc3)n2)c1,141,–
Nc1cccc(-c2nc3sccn3c2-c2ccnc(NCCNS(=O)(=O)c3ccc(F)cc3)n2)c1,12.7,–
